Here are results for four compounds from patent US10213447B2, “Preparation of acetate salt compositions of pharmaceutical agents” (The Curators of the University of Missouri, priority 2015, dated 2019).

Molecules are shown by their SMILES. Values after ≈ are worked out from the molar mass of the structure shown.

For data set [1] the following is noted: cited from earlier work.
For data set [2] the following is noted: Meng, et al.; cited from earlier work.
For data set [3] the following is noted: cited from earlier work. This is another data set of the same source.
The conditions of data set [4]: cited from earlier work. This is another data set of the same source.
For data set [5] the following is noted: in vivo; cited from earlier work.
The next data set can be described thus: physchem. Particulars: pH 7, aqueous buffer, thermodynamic from solid.
The nature of data set [6]: Particle size, zeta potential and polydispersity index by dynamic light scattering. The class given is physicochemical. As for the experimental part: Fresh NPs were re-suspended by sonication (Qsonica LLC, Newtown, Conn., USA) in deionized water, or SA coated NPs were dissolved in deionized water and the particle size, the zeta potential, and polydispersity index (PDI) was measured through dynamic light scattering (Zetasizer Nano ZS, Malvern Instruments Ltd, Worcestershire, UK) at 25° C. Samples with polydispersity index (PDI)<0.05 were considered monodispersed according to the National Institute guidelines (7).

Protocol for physchem: Sodium hydroxide was added raising the pH of the solution to 12.30. […] After the period of about 24 hours elapsed, the solution was freeze dried. The amount of DXT that dissolved into solution from each DXT composition was measured by determining the amount of DXT in the supernatant, as measured by UV spectroscopy at 230 nm after removing undissolved material by centrifugation. […] Native DXT (uncoated) dissolved into acetate buffer at the same pH was used as a control.

With `O=P(O)(O)OP(=O)(O)OP(=O)(O)O` [Triphosphoric acid], the “pKa (fifth listed)” value in data set [1] (fifth dissociation, printed pKa) is 8.5. The pKa1 in data set [1] (first dissociation) is recorded as 1. The pKa4 in data set [1] (fourth dissociation) was 3.7. In addition, the “pKa (second listed)” value in data set [1] (second dissociation, printed pKa) is listed as 2.2. In addition, the pKa3 in data set [1] (third dissociation) was 2.3.

Turning to `C[C@H](Cn1cnc2c(N)ncnc21)OCP(=O)(O)O` [TFV, tenofovir], the “TFV encapsulated in chitosan NPs (EE %)” value in data set [2] is on record as 5.83%. Moreover, the Solubility in water in data set [3] was 13400 µg/mL (≈ 46700 µM). Moreover, the lipophilicity (log P) (commonly the decadic logarithm of the partition coefficient of the neutral form, usually between octanol and water) in data set [4] is −1.1. The Oral bioavailability in data set [5] is on record as 25-39%.

On to `CC(=O)O[C@@]12CO[C@@H]1C[C@H](O)[C@@]1(C)C(=O)[C@H](O)C3=C(C)[C@@H](OC(=O)[C@H](O)[C@@H](NC(=O)OC(C)(C)C)c4ccccc4)C[C@@](O)([C@@H](OC(=O)c4ccccc4)[C@H]21)C3(C)C` [uncoated DXT, Docetaxel, reference compound], for which the pKa – broadly, the negative logarithm of the acid dissociation constant – in data set [1] is reported as around 10.96. Also, in “physchem”, the solubility (commonly the dissolved amount per volume that the medium holds) is around 11.8 µg/mL (≈ 14.6 µM).

For `CC(=O)[O-].[Na+]` [pure salt, sodium acetate], the ZP in data set [6] (as worded) is given as 0-3 mV. In addition, the “Zeta potential of pure salt (ev)” value in data set [6] (pure salt) was −4.87 ± 0.64 ev.
